Results as given in PubChem BioAssay AID2823 (Broad Institute, 2010).
Activity calls are given as the source filed them. No rule for the calls is given here.

target: RanGTP-importin-beta complex (human Ran / KPNB1); assay: Ran–importin-beta interaction inhibitors, confirmation, biochemical, FRET, CFP/YFP, cell-free homogeneous (AID 2823); conditions: CFP-Ran/YFP-importin-beta FRET ratio

SMILES	IC50
O=C1NC(=O)N(Cc2ccccc2)C(=O)/C1=C/N1CCCc2ccccc21	> 50 µM (inactive)
Cc1c(OCC(=O)NCc2ccncc2)ccc2c3c(c(=O)oc12)CCC3	> 50 µM (inactive)
Cc1cc(C)c2c(n1)nn1c(NCCCN(C)C)cc(C)nc21	22.3 µM
O=C(Nc1cnc2ccccc2c1)c1cccc(-n2cnnn2)c1	> 50 µM (inactive)
CC(C)C1C2=C(CC(C)(C)CC2=O)ON1c1ccccc1 (stereo not given)	> 50 µM (inactive)
Cc1c(CCC(=O)NC2CC2)c(=O)oc2c(C)c(O)ccc12	20.8 µM
NS(=O)(=O)c1ccc(CCNC(=O)C(=O)c2c[nH]c3ccccc23)cc1	> 50 µM (inactive)
CCOC(=O)C(=O)Nc1cc(C(=O)OC)cc(C(=O)OC)c1	> 50 µM (inactive)
CCCCn1c(NC(=O)c2ccc(Br)o2)c(S(=O)(=O)c2ccccc2)c2nc3ccccc3nc21	4.83 µM
C=CCN1C(=O)/C(=C\c2ccc(OC(=O)c3ccco3)c(OC)c2)SC1=S	> 50 µM (inactive)
Cn1c(=O)[nH]c2c(nc(-c3ccc(Cl)cc3)n2C)c1=O	26.1 µM
CC(C)(C)Nc1nc(SCC(=O)Nc2ccccc2)nc(N2CCOCC2)n1	> 50 µM (inactive)
O=C(Nc1ccc(OC(F)(F)F)cc1)c1ccc2nc[nH]c2c1	> 50 µM (inactive)
CCNc1nnc(CSc2nc3ccccc3s2)s1	> 50 µM (inactive)
CC(C)OC(=O)c1c(N)n(CC2CCCO2)c2nc3ccccc3nc12 (stereo not given)	18 µM
COCCN1C=C(C(=O)OC)C(c2ccc(Cl)cc2)C(C(=O)OC)=C1	9.78 µM
OCCNc1c2ccccc2nc2c(F)c(F)c(F)c(F)c12	20.9 µM
Cc1ccc(OCc2nnc(SCC(=O)CC(=O)Nc3ccccc3)o2)cc1	> 50 µM (inactive)
CCN(C(=O)c1ccc(Cl)cc1[N+](=O)[O-])c1ccccc1C	> 50 µM (inactive)
CCN1/C(=C/C=C/c2sc3ccccc3[n+]2CC)Sc2ccccc21	16.6 µM
N=C(N)SCc1nc2ccccc2c(=O)n1-c1ccccc1Cl	> 50 µM (inactive)
O=C(O)Cn1cc(/C=C2\SC(=O)N(c3ccccc3)C2=O)c2ccccc21	39.4 µM
COc1ccc2c(CC#N)c[nH]c2c1	> 50 µM (inactive)
O=C1/C(=C/c2cccs2)Sc2ccccc21	> 50 µM (inactive)
O=c1cn[nH]c2ccccc12	> 50 µM (inactive)
CCOC(=O)c1c(NC(=O)C2CCCCC2)sc2c1CCN(C(C)C)C2	> 50 µM (inactive)
Cc1sc2c(c1C)C(=O)NC(c1ccccc1F)N2 (stereo not given)	> 50 µM (inactive)

SMILES	IC50
Nc1ccccc1C(=O)NNc1c2ccccc2nc2ccccc12	> 50 µM (inactive)
COCCNC(=O)c1c(NC(=O)c2ccco2)n(Cc2ccccc2)c2nc3ccccc3nc12	1.91 µM
O=C(O)c1c2c(nc3ccccc13)/C(=C/c1ccc(OC(F)F)cc1)CCC2	> 50 µM (inactive)
O=C(Nc1cccc(OC(=O)N2CCCCC2)c1)N1CCCCC1	> 50 µM (inactive)
Cc1ccc(-c2nc3cc(N)ccc3o2)cc1	> 50 µM (inactive)
Cc1sc(NC(=O)c2ccccc2)c(C#N)c1-c1ccccc1	> 50 µM (inactive)
O=c1[nH]c(=O)n(-c2cccc3ccccc23)c(O)c1/C=N/N1CCCCCC1	> 50 µM (inactive)
OCCNc1nc(-c2ccccc2)nc2ccccc12	> 50 µM (inactive)
CC(=O)Cc1nsc(NC(=O)c2ccc(-c3cccc(C(F)(F)F)c3)o2)n1	> 50 µM (inactive)
C=CCn1c(=O)c(C(=O)Nc2ccc(C)cc2)c(O)c2ccccc21	> 50 µM (inactive)
O=C(CSCC(=O)NC1CC1)Nc1ccccc1	> 50 µM (inactive)
CC(C)(C)CN1CCC(n2nccc2NC(=O)c2ccccc2Cl)CC1	> 50 µM (inactive)
COC(=O)c1ccc2c(=O)n(CCN3CCOCC3)c(SCC(=O)C(C)(C)C)nc2c1	> 50 µM (inactive)
COc1ccccc1C(=O)NCCNc1nc2cc(C)cc(C)c2cc1C#N	39.5 µM
O=C(c1cc(COc2ccc(F)cc2Cl)on1)N1CCCC(c2ccccc2)C1 (stereo not given)	> 50 µM (inactive)
CC(C)Cc1nn2c(N)c(/C=C3\C=Nc4ccccc43)c(=O)nc2s1	> 50 µM (inactive)
CN1CCCN(Cc2cccc3ccccc23)CC1	> 50 µM (inactive)
COc1cccc(C(=O)/C=C/Nc2cc(C)ccc2O)c1	> 50 µM (inactive)
O=C(COC(=O)c1ccc2ccccc2c1)NCCCc1ccccc1	> 50 µM (inactive)
c1ccc2c(c1)nc(NCC1CCCO1)c1nnnn12 (stereo not given)	30.3 µM
COCC(=O)Nc1nnc(COc2ccc(Cl)cc2)s1	> 50 µM (inactive)
COc1cc(/C(O)=C(\C#N)c2nc3ccccc3[nH]2)cc(OC)c1OC	15.5 µM
CC1(C(=O)O)C=CCN1C(=O)c1ccccc1 (stereo not given)	> 50 µM (inactive)
CCOC(=O)c1[nH]c(C)c(C(=O)N(C)Cc2ccccc2)c1C	> 50 µM (inactive)
Cc1ccc(N2NC(=O)/C(=C\c3cc4c(cc3[N+](=O)[O-])OCO4)C2=O)cc1C	> 50 µM (inactive)
CN(C)/C=C/C(=O)/C=C/c1ccc(Cl)cc1	> 50 µM (inactive)
CC(C)NC(=O)/C(C#N)=C/c1ccc(N(C)C)o1	6.07 µM

SMILES	IC50
CCOC(=O)C1=C(N)OC2=C(C(=O)CCC2)C1c1sccc1C (stereo not given)	> 50 µM (inactive)
Nc1nc(CSc2nc3ccccc3s2)nc(N2CCCCC2)n1	> 50 µM (inactive)
Cc1ccccc1-n1c(=O)cc(N2CCC3(CC2)OCCO3)[nH]c1=O	> 50 µM (inactive)
Oc1c(CN2CCN(c3ccc(F)cc3)CC2)cc(Cl)c2cccnc12	> 50 µM (inactive)
CCOC(=O)C1CCN(C(=O)COC(=O)c2ccc3[nH]c4c(c3c2)CCCC4)CC1	> 50 µM (inactive)
COC(=O)C(C)Oc1ccc2c(c1)O/C(=C\c1ccco1)C2=O (stereo not given)	15.5 µM
COc1ccccc1S(=O)Cc1ccc(C(=O)O)o1 (stereo not given)	> 50 µM (inactive)
Cc1c(CC(=O)NCC(=O)N[C@H](Cc2ccccc2)C(=O)O)c(=O)oc2cc(O)ccc12	46.2 µM
CCC(=O)NCCNc1nc2cc(C)c(C)cc2cc1C#N	16 µM
COc1ccc(NC(=O)N2CCCCCC2)cc1	> 50 µM (inactive)
CCOCCCNC(=O)NC(=O)CN1CCN(S(=O)(=O)c2ccc3c(c2)OCCO3)CC1	> 50 µM (inactive)
O=C(C1CCCCC1)N1CC(=O)N2CCc3ccccc3C2C1 (stereo not given)	> 50 µM (inactive)
CCCN1CCC2(CC1)C(C#N)=C(N)Oc1c2sc2nc(C)cc(C)c12	> 50 µM (inactive)
CC1=Nc2ccccc2/C1=C\c1nc(-c2ccc(F)cc2)oc1O	> 50 µM (inactive)
C/C(=N\NC(=S)NCc1ccccc1)c1cccc(Br)c1	> 50 µM (inactive)
Cc1cc(NC(=O)c2c(F)c(F)c(F)c(F)c2F)no1	> 50 µM (inactive)
Cc1ccc(/C=C2/C(=O)c3ccc(C(=O)O)cc3C2=O)o1	> 50 µM (inactive)
CS(=O)(=O)N(CC(=O)NCCSCc1ccco1)c1ccc(Cl)cc1	> 50 µM (inactive)
CC1(C)CCC(=O)C=C1Nc1ccc(F)c(Cl)c1	> 50 µM (inactive)
N#Cc1c(N)[nH]c(=S)c(C#N)c1-c1ccccc1	> 50 µM (inactive)
CCc1ccccc1N(CC(=O)NCc1ccco1)C(=O)CCC(=O)Nc1nccs1	> 50 µM (inactive)
O=C(O)Cn1cc(/C=C2/SC(=O)N(CC(=O)N3CCCCCC3)C2=O)c2ccccc21	44.1 µM
Cc1cc(O)ccc1NC1=CC(=O)CC(C)(C)C1	> 50 µM (inactive)
CCOC(=O)c1ccc(CNC(=O)CSc2nnc(-c3ccncc3)o2)cc1	> 50 µM (inactive)
CN(C)C=NC(=O)c1cc(C(=O)c2ccc(C(C)(C)C)cc2)c[nH]1	> 50 µM (inactive)
CC(=O)N1CCc2c(sc(NC(=O)CS(=O)(=O)c3ccc(F)cc3)c2C(N)=O)C1	> 50 µM (inactive)
COc1ccc(Oc2nc3c(C)cccn3c(=O)c2/C=C(\C#N)C(N)=O)cc1	9.6 µM

SMILES	IC50
COc1ccc(-c2cc(C(F)(F)F)n3nc(N)nc3n2)cc1	14.6 µM
CCOC(=O)c1c(NC(=O)C2CCCCC2)sc2c1CCN(CC)C2	> 50 µM (inactive)
CCS(=O)(=O)c1nc(S(=O)(=O)c2ccc(C)cc2)c(NCc2ccccn2)s1	> 50 µM (inactive)
CCn1c(SCc2nc(-c3ccccc3)no2)nnc1-c1cccs1	> 50 µM (inactive)
COc1cc(C(=O)N2CCCN(c3nc4cc(C)ccc4cc3C#N)CC2)cc(OC)c1OC	10.9 µM
CC1CN(Cc2cc(=O)oc3cc(O)ccc23)CC(C)O1 (stereo not given)	19 µM
Cc1cccc(NC(=O)c2cc(S(=O)(=O)N(C)c3ccc(F)cc3)ccc2Cl)n1	> 50 µM (inactive)
Cc1ccc(C2=CC(c3ccccc3)n3ncnc3N2)c(C)c1 (stereo not given)	> 50 µM (inactive)
COc1ccc(-n2c(N)c(C(=O)NCc3ccco3)c3nc4ccccc4nc32)cc1OC	45.6 µM
Cc1ccc2cc(C#N)c(N3CCCN(C(=S)NCCCN(C)C)CC3)nc2c1	22.6 µM
Fc1ccccc1N1CC(c2ccccc2)C(c2cccs2)=N1 (stereo not given)	20.8 µM
CCn1nc(NC(=O)c2ccncc2)c2cc3ccc(C)cc3nc21	46.4 µM
CCN1CCc2nc(NC(=O)CC(c3ccccc3)c3ccccc3)sc2C1	23.2 µM
Cc1ccc(C(=O)NCc2ccco2)cc1S(=O)(=O)N1CCOCC1	> 50 µM (inactive)
O=C(Nc1cccc(F)c1)c1ccc(S(=O)(=O)NCC2CCCO2)cc1 (stereo not given)	> 50 µM (inactive)
COc1ccc(N2C(=O)c3ccccc3NC2c2cccnc2)cc1 (stereo not given)	> 50 µM (inactive)
CCCn1cnc2cc(NCc3ccc(Br)cc3)ccc21	> 50 µM (inactive)
OCC1(Cc2cccc(Cl)c2)CCCN(Cc2ccc3cc(F)ccc3n2)C1 (stereo not given)	> 50 µM (inactive)
Cc1cc(C(=O)N2CCc3c([nH]c4ccccc34)C2c2c(F)cccc2Cl)no1 (stereo not given)	> 50 µM (inactive)
N#Cc1cc2cc3c(cc2nc1N1CCOCC1)OCO3	12.2 µM
CCCn1nc(NC(=O)CC(C)C)c2cc3cccc(C)c3nc21	5.82 µM
Cc1c(/C=N\NC(=O)C2COc3ccccc3O2)c2ccccc2n1C (stereo not given)	> 50 µM (inactive)
O=C(COC(=O)CSCC(=O)N1CCCCC1)Nc1ccc(Cl)cc1	> 50 µM (inactive)
CCN1CCc2c(sc(NC(=O)C3CCCCC3)c2C(=O)OC)C1	> 50 µM (inactive)
